Assay results reported in patent US20230010258A1, “COMPOSITION FOR PREVENTING OR INHIBITING AXONAL DEGENERATION” (CHECKMATE THERAPEUTICS INC., priority 2019, published 2023).
Where a name gives a salt, the structure may show the parent alone.

Legend:
[1] = tested on: retinal ganglion cell axons; assay: Tadpole optic nerve axotomy model, axon survival score (Experimental Example 4); type: in vivo, Xenopus tropicalis; conditions: axotomy at stage 43, evaluated 48 hours after axotomy, control DMSO
Protocol: In order to verify the axon protective effect of the compound according to the present invention in the tadpole optic nerve axotomy model, an experiment was conducted in the same manner as in Experimental Example 3. Specifically, GFP-expressing DNA was delivered into one retina of a Xenopus tropicalis tadpole at stage 27 (before retinal development) by electroporation. At stage 43 (the time when the connection between the retina and the visual center of the brain is finished), axons of the epectroporated retina were axotomized, and the tissue was fixed at 24-hour intervals, followed by extraction of the brain. Next, the ventral midline of the brain was excised and unfolded, and then the GFP signal in the contra-lateral brain hemisphere was imaged with a confocal microscope (LSM700, Carl Zeiss, 20×, z-step 3 μm). Thereby, it was possible to observe retinal ganglion cell axons located along the optic tract extending from the optic chiasm to the optic tectum. […] Axonal degeneration could be quantified because the continuous GFP signal disappeared along the optic tract over time after axotomy. […] The degree of inhibition of axonal degeneration by the drug was evaluated 48 hours after axotomy. […] The percentage of healthy axons in the drug group relative to the control group taken as 100% was calculated and used as the axon survival score (0 to 100%).

axonal degeneration = conditions: cited from earlier work
[2] = tested on: phosphorylation of JNK protein, a representative sub-regulatory marker of SARM1; conditions: MKN1 cells, Western blot, Hsp90 as housekeeping protein
Protocol: Accordingly, in order to evaluate the axonal degeneration inhibitory effects of the compounds according to the present invention, the abilities of these compounds to inhibit SARM1 enzyme were analyzed. Specifically, whether phosphorylation of JNK protein, a representative sub-regulatory marker of SARM1, decreased, was evaluated by Western blot assay. A method for preparing the protein used in the Western blot assay is as follows. […] The entire cell lysate was fractionated using a centrifuge, and then only the solution containing the protein was extracted. The extracted protein was quantified by the Bradford method. The protein of the same concentration obtained through quantification was separated by SDS-polyacrylamide gel electrophoresis, and then transferred to a PVDF membrane. […] For visualization, an enhanced chemiluminescence system was used. Western blot assay was performed using JNK protein, a representative marker whose phosphorylation is regulated by SARM1, and the housekeeping protein Hsp90 was used for quantitative comparison of expression.

optic nerve axons = assay: Tadpole optic nerve axotomy model, delay in Wallerian degeneration (Experimental Example 3); type: in vivo, Xenopus tropicalis; conditions: optic nerve axotomized at stage 41, 48 hours after treatment
Protocol: In order to verify the axon protective effect of the compound according to the present invention in the tadpole optic nerve axotomy model, an experiment was conducted according to the design shown in FIG. 13. Specifically, an in vitro fertilized Xenopus tropicalis (African frog) embryo (Nasco, Fort Atkinson, Wis. 53538, USA) is cultured to stage 27, and then a plasmid DNA expressing Enhanced Green Fluorescence Protein (EGFP) is delivered into the retinal progenitor cells of one eye by an electroporation technique. After culturing to stage 41, the axons of the retinal ganglion cells expressing the green fluorescent protein reach the optic tectum of the contralateral brain hemisphere, and this axon bundle is referred to as the optic nerve. When the optic nerve is axotomized at stage 41, Wallerian degeneration occurs in which axons distal from the cell body degenerate by fragmentation over about 72 hours. […] Wallerian degeneration of the Xenopus optic nerve occur in a stereotypical pattern at 24 hours, 48 hours and 72 hours after axotomy, and the degree of delay in Wallerian degeneration was quantified as percentage by comparing the degree of Wallerian degeneration in the drug-treated group with this pattern.

Which “axon protective effect (axon survival score)” value [1] does the source give for `CS(=O)(=O)c1ccc2oc(-c3ccc(CNC(=O)c4cccnc4)cc3)nc2c1` [A4510H, N-(4-(5-(methylsulfonyl)benzo[d]oxazol-2-yl)benzyl)nicotinamide hydrochloride] here?
Its value is “exhibited an excellent axon protective effect”.

For `O=C(/C=C/c1cccnc1)NCCCCC1CCN(C(=O)c2ccccc2)CC1` [FK866], which axonal degeneration (axonal degeneration) is on record?
The axonal degeneration was “effect of partially inhibiting axonal degeneration”.

With `O=C(NCc1ccc(-c2nc3ccc(Cl)cc3o2)cc1)c1cccnc1` [A4266, N-(4-(6-chlorobenzo[d]oxazol-2-yl)benzyl)nicotinamide] as the compound, how does the JNK phosphorylation [2] read?
Its JNK phosphorylation is “had the effect of inhibiting JNK phosphorylation”.

Which “axon protective effect (degree of delay in Wallerian degeneration)” value (optic nerve axons) does the source give for `Nc1ccc(/C=C/C(=O)NCc2cc3cc(-c4ccc(C(=O)N5CCC(F)(F)CC5)cc4)cc(-c4ccc(F)cc4)c3o2)cn1` [KPT9274] here?
The value was “did not exhibit a significant axon protective effect”.

For `CC(C)(O)CS(=O)(=O)Nc1ccc2c(c1)CCN(C(=O)COc1cccnc1)C2` [LSN 3154567], which “axon protective effect (degree of delay in Wallerian degeneration)” value (optic nerve axons) is on record?
The value was “did not exhibit a significant axon protective effect”.
